Earlier results as cited in paper PMC9389804 (Journal of Hematology & Oncology, 2022).

Design: method as in PMID 29567798
Settings: median follow-up of 5 years; cited from earlier work

Cc1ccc(C(=O)Nc2ccc(CN3CCN(C)CC3)c(C(F)(F)F)c2)cc1C#Cc1cnc2cccnn12 [ponatinib]
incidence of arterial occlusive and venous thrombotic events: 31.0%
